{"source": "patent US4333926A", "about": "“Steryl-β-D-glucoside pharmaceutical compositions and use” (Nippon Shinyaku Co., Ltd., priority 1979, dated 1982)", "key": {"[1]": {"system": "pulmonary hemorrhage under reduced pressure", "assay": "Vascular stabilization: pulmonary hemorrhage in mice under reduced pressure (Table 6; vascular stability summary table)", "assay_type": "in vivo", "settings": "for ED50: Mus musculus, iv, read-out: Vascular stability ED50; for ED50 (pulmonary hemorrhage): reduced pressure 50±0.5 mm Hg/15 sec", "description": "For example, the following tables summarize the vascular stabilizing effect (described in detail below).\nThe surprising vascular stabilizing effect of these compounds can also be shown in a number of recognized models of which the following are typical.\nThe degree of pulmonary homorrhage in mice under reduced pressure of 50±0.5 mm Hg/15 sec was assessed by the scoring method, the ED50 of each compound being calculated from the ratio of inhibiting rate for treated animals over that for the control group according to the method of G. J. Mojovski et al., J. Pharmacol. Exp. Therap. 80, 1, 1944."}, "[2]": {"system": "bleeding from amputated tail tip", "assay": "Hemostatic effect, bleeding from amputated tail tip (Motohashi et al.)", "assay_type": "in vivo, mice"}, "[3]": {"system": "bleeding from punctured ear vein", "assay": "Inhibitory effect on bleeding from ear vein (Duke)", "assay_type": "in vivo, rabbits", "settings": "10 mg/kg i.v., 3 hours after administration", "text": "The hemostatic effect can also be observed by measuring the inhibitory effect on bleeding from ear vein in rabbits."}, "[4]": {"system": "hemorrhages induced by vesical mucosal resection", "assay": "Hemorrhage induced by vesical mucosal resection (Dermaut et al.)", "assay_type": "in vivo, dogs", "settings": "5 mg/kg i.v."}, "[5]": {"system": "gastric mucosal hemorrhaging induced by electroshock", "assay": "Gastric mucosal hemorrhage induced by electroshock (Danno et al.)", "assay_type": "in vivo, rats"}, "[6]": {"system": "local hemorrhage induced by snake venom (Naja Naja cobra)", "assay": "Local hemorrhage induced by snake venom", "assay_type": "in vivo, rats", "description": "The inhibitory effect of SG and SGP on local hemorrhage induced by abdominal intracutaneous administration of snake venom (Naja Naja cobra) in rats was determined in terms of inhibiting rate against untreated control rats."}, "[7]": {"system": "abdominal cutaneous vascular resistance", "assay": "Abdominal cutaneous vascular resistance, petechia appearance under reduced pressure (Borbely et al.)", "assay_type": "in vivo, guinea-pigs", "settings": "100 mg/kg, s.c.; reduced pressure 250 to 260 mm Hg", "text": "The effect on abdominal cutaneous vascular resistance in guinea-pigs can also be used as a model of vascular stabilization. The time of appearance of petechia in abdominal skin of guinea-pigs under reduced pressure of 250 to 260 mm Hg is used as the index, with the petechia appearance delaying effect of each test compound in comparison with the control being determined according to the method of V. Borbely et al., Munch."}, "[8]": {"system": "increased vascular permeability caused by histamine", "assay": "Increased vascular permeability caused by histamine, rat", "assay_type": "in vivo", "settings": "100 mg/kg, i.p.", "description": "(§1) The inhibitory effect on increased vascular permeability caused by intracutaneous administration of histamine, hyaluronidase, lecithinase A and formalin is also correlated to vascular stabilization. This parameter was measured by the dye leakage method with the inhibitory effect of each test drug expressed in terms of inhibiting rate over the control according to the methods of Benditt et al., Proc. Soc. Biol. Med. 75 782 1950 and Orary et al., J. Exp. Med. 117, 951, 1963."}, "[9]": {"system": "increased vascular permeability caused by histamine", "assay": "Increased vascular permeability caused by histamine, rabbit", "assay_type": "in vivo", "settings": "100 mg/kg, i.p.", "description": "as §1"}, "[10]": {"system": "increased vascular permeability induced by hyaluronidase", "assay": "Increased vascular permeability induced by hyaluronidase, rat", "assay_type": "in vivo", "settings": "100 mg/kg, i.p.", "description": "as §1"}, "[11]": {"system": "increased vascular permeability induced by hyaluronidase", "assay": "Increased vascular permeability induced by hyaluronidase, rabbit", "assay_type": "in vivo", "settings": "100 mg/kg, i.p.", "description": "as §1"}, "[12]": {"system": "increased vascular permeability induced by lecithinase A", "assay": "Increased vascular permeability induced by lecithinase A", "assay_type": "in vivo, rabbits", "settings": "100 mg/kg, i.p.", "description": "as §1"}, "[13]": {"system": "increased vascular permeability induced by formalin", "assay": "Increased vascular permeability induced by formalin", "assay_type": "in vivo, rabbits", "settings": "100 mg/kg, i.p.", "description": "as §1"}, "Arthus reaction": {"system": "Arthus reaction", "assay": "Arthus reaction, increased vascular permeability (Benacerral et al.)", "assay_type": "in vivo, guinea-pigs", "settings": "100 mg/kg, i.p.; 5 hours after provocation", "description": "Increased vascular permeability five hours after provocation of reaction is measured as the leakage of hemoglobin according to the method of Benacerral et al., J. Immunol."}, "endotoxin shock": {"system": "endotoxin shock", "assay": "Endotoxin shock mortality (48 hours)", "assay_type": "in vivo", "description": "The mortality rate during the period of 48 hours following intravenous administration of 80% lethal dose (8 mg/kg) of endotoxin is observed with the effect of each compound being expressed as the ED50 (see Tanabe et al., Pharmacometrics Vol. 7 591, 1973)."}, "[14]": {"system": "passive systemic anaphylaxis", "assay": "Passive systemic anaphylaxis lethality (Munoz et al.)", "assay_type": "in vivo, guinea-pigs", "description": "The preventive effect against passive systemic anaphylaxis was determined according to the method of Munoz et al., J. Immunol., 80, 77 (1958). An antigen of 80% lethal dose is intravenously administered to antiserum-sensitized guinea-pigs, and the resultant passive systemic anaphylaxis lethality is expressed as the inhibition rate as compared with the control group."}}, "note": "Like-named read-outs stand apart in the source and are kept apart here.", "data": [{"smiles": "CC(C)[C@H](C)CC[C@@H](C)[C@H]1CC[C@H]2[C@@H]3CC=C4C[C@@H](O[C@@H]5O[C@H](CO)[C@@H](O)[C@H](O)[C@H]5O)CC[C@]4(C)[C@H]3CC[C@]12C", "note": "[Campesteryl-β-D-glucoside]", "values": [{"measurement": "ED50", "setting": "[1]", "result": 2.4, "unit": "mg/kg"}]}, {"smiles": "CC(C)CCC[C@@H](C)[C@H]1CC[C@H]2[C@@H]3CC=C4C[C@@H](O[C@@H]5O[C@H](CO)[C@@H](O)[C@H](O)[C@H]5O)CC[C@]4(C)[C@H]3CC[C@]12C", "note": "[Cholesteryl-β-D-glucoside]", "values": [{"measurement": "ED50", "setting": "[1]; summary table by compound", "result": 1.8, "unit": "mg/kg"}]}, {"smiles": "CC[C@H](/C=C/[C@@H](C)[C@H]1CC[C@H]2[C@@H]3CC=C4C[C@@H](O[C@@H]5O[C@H](CO)[C@@H](O)[C@H](O)[C@H]5O)CC[C@]4(C)[C@H]3CC[C@]12C)C(C)C", "note": "[Stigmasteryl-β-D-glucoside]", "values": [{"measurement": "ED50", "setting": "[1]; summary table by compound", "result": 2.33, "unit": "mg/kg"}]}, {"smiles": "CC[C@H](CC[C@@H](C)[C@H]1CC[C@H]2[C@@H]3CC=C4C[C@@H](O[C@@H]5O[C@H](CO)[C@@H](O)[C@H](O)[C@H]5O)CC[C@]4(C)[C@H]3CC[C@]12C)C(C)C", "note": "[β-sitosteryl-β-D-glucoside]", "values": [{"measurement": "ED50", "setting": "[1]; summary table by compound", "result": 1.48, "unit": "mg/kg"}]}, {"smiles": "CN1C2=CC(=O)/C(=N\\NC(N)=O)C=C2CC1S(=O)(=O)[O-].[Na+]", "note": "(centres unmarked) [Carbazochrome sodium sulfonate]", "values": [{"measurement": "ED50 (pulmonary hemorrhage)", "setting": "[1]; i.p.", "result": 112.0, "unit": "mg/kg"}, {"measurement": "ED50 (pulmonary hemorrhage)", "setting": "[1]; i.v.", "result": 80.0, "unit": "mg/kg"}, {"measurement": "ED50 (pulmonary hemorrhage)", "setting": "[1]; p.o.", "result": 400.0, "unit": "mg/kg"}, {"measurement": "ED50 (hemostatic effect)", "setting": "[2]; i.p.", "result": 5.4, "unit": "mg/kg"}, {"measurement": "ED50 (hemostatic effect)", "setting": "[2]; i.v.", "result": 3.6, "unit": "mg/kg"}, {"measurement": "ED50 (hemostatic effect)", "setting": "[2]; p.o.", "result": 36.0, "unit": "mg/kg"}, {"measurement": "% Reduction (time of bleeding)", "setting": "[3]", "result": 20.0, "unit": "%"}, {"measurement": "% Inhibition (bleeding)", "setting": "[4]", "result": 39.9, "unit": "%"}, {"measurement": "electroshock hemorrhage arresting effect", "setting": "[5]; dose of 200 mg/kg", "result": "no noticeable effect"}, {"measurement": "ED50 (inhibiting gastric mucosal hemorrhage)", "setting": "[5]; s.c., electroshock 100-200 V, 3 times/min., 24 hours", "result": "> 200.0", "unit": "mg/kg"}, {"measurement": "inhibitory effect against hemorrhagic action of snake venom", "setting": "[6]; 100 mg/kg", "result": "only slight effects"}, {"measurement": "% Inhibition (local hemorrhage)", "setting": "[6]; 100 mg/kg i.p.", "result": 9.1, "unit": "%"}, {"measurement": "Prolongation Rate (test group/control group)", "setting": "[7]", "result": 1.7}, {"measurement": "% Inhibition", "setting": "[8]", "result": 32.7, "unit": "%"}, {"measurement": "% Inhibition", "setting": "[9]", "result": 29.6, "unit": "%"}, {"measurement": "% Inhibition", "setting": "[10]", "result": -4.5, "unit": "%"}, {"measurement": "% Inhibition", "setting": "[11]", "result": 4.7, "unit": "%"}, {"measurement": "% Inhibition", "setting": "[12]", "result": 10.8, "unit": "%"}, {"measurement": "% Inhibition", "setting": "[13]", "result": 0.4, "unit": "%"}, {"measurement": "% Inhibition (Arthus reaction)", "setting": "Arthus reaction", "result": 26.3, "unit": "%"}, {"measurement": "effect on endotoxin shock", "setting": "endotoxin shock; doses of less than 200 mg/kg", "result": "no niticeable effect"}, {"measurement": "ED50 (endotoxin shock)", "setting": "endotoxin shock; i.p., endotoxin 80% lethal dose (8 mg/kg) i.v., 48 hours", "result": "> 200.0", "unit": "mg/kg"}, {"measurement": "inhibitory effect against death from endotoxin-shock", "setting": "endotoxin shock; in vivo", "result": "far inferior in effect to SG and SGP"}, {"measurement": "% Inhibition (PSA lethality)", "setting": "[14]; 100 mg/kg, i.p., antigen 80% lethal dose i.v.", "result": 20, "unit": "%"}, {"measurement": "effect on passive systemic anaphylaxis", "setting": "[14]; dose of 100 mg/kg", "result": "only very slight effects"}]}]}
